Legend:
RAW 264.7 macrophages = assay: SAFIRE macrophage assay: host toxicity (adherent macrophage count, morphology); format: cell-based
How it was run: (§1)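 Compound or DMSO added 2 h after gentamicin-protected infection (MOI ~30, sifB::gfp SL1344) of RAW 264.7 cells and left to 18 h. Fixed cells imaged; intracellular GFP area per macrophage gives bacterial load, while retained adherent MitoTracker Red-stained macrophages define host toxicity.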

[1] = system: S. Typhimurium SL1344 (sifB::gfp) in RAW 264.7 macrophages; assay: SAFIRE macrophage assay: intracellular bacterial load (GFP signal within macrophages); format: cell-based, Salmonella enterica serotype Typhimurium; details: for 5 uM Avg Antibacterial Score / 25 uM Avg Antibacterial Score: 'Toxic' given instead of a score
How it was run: as §1

| SMILES | 5 uM Avg Cell # Score (RAW 264.7 macrophages) | 25 uM Avg Cell # Score (RAW 264.7 macrophages) | 5 uM Avg Antibacterial Score [1] | 25 uM Avg Antibacterial Score [1] | IC50 ([1]; Salmonella enterica, TYPHIMURIUM, RAW264.7, read-out: SAFIRE IC50) |
| --- | --- | --- | --- | --- | --- |
| N[C@H]1CCN(CC(O)COc2cc(Cl)cc(Cl)c2)C1 (some centres unmarked) [CU204] | 93 | 101 | 28 | 8.51 | – |
| NCC1CCN(CC(O)COc2ccc(Cl)c(Cl)c2)CC1 (centres unmarked) [CU205] | 131 | 13 | 12 | Toxic | – |
| NCC1CCN(CC(O)COc2ccc(Cl)c(Cl)c2)C1 (centres unmarked) [CU206] | 124 | 87 | 25 | 12 | – |
| c1ccc2c(CN3CCNCC3)cccc2c1 [CU207] | 113 | 121 | 98 | 59 | – |
| NCC1CCN(CC(O)COc2cc(Cl)cc(Cl)c2)CC1 (centres unmarked) [CU208] | 167 | 15 | 20 | Toxic | – |
| NCC1CCN(CC(O)COc2cc(Cl)cc(Cl)c2)C1 (centres unmarked) [CU209] | 143 | 94 | 41 | 14 | – |
| COCCCN(C)C1CCN(CC(O)COc2ccc(Cl)c(Cl)c2)CC1 (centres unmarked) [CU210] | 131 | 112 | 54 | 8 | 6 nM |
| COCCN1CCN(CC(O)COc2ccc(Cl)c(Cl)c2)CC1 (centres unmarked) [CU211] | 120 | 115 | 100 | 50 | – |
| OC(COc1ccc(Cl)c(Cl)c1)CN1CCN(Cc2cccc3ccccc23)CC1 (centres unmarked) [CU212] | 19 | 18 | Toxic | Toxic | – |
| OC(COc1cc(Cl)cc(Cl)c1)CN1CCN(Cc2cccc3ccccc23)CC1 (centres unmarked) [CU213] | 41 | 15 | Toxic | Toxic | – |
| NC1CCN(CC(O)COc2ccc3ccccc3c2)CC1 (centres unmarked) [CU214] | 103 | 22 | 28 | Toxic | – |
| NC1CCN(CC(O)COc2cccc3ccccc23)CC1 (centres unmarked) [CU215] | 106 | 17 | 44 | Toxic | – |
| N[C@H]1CC[C@@H](NCC(O)COc2cc(Cl)cc(Cl)c2)CC1 (some centres unmarked) [CU216] | 102 | 22 | 52 | Toxic | – |
| N[C@H]1CC[C@H](NCC(O)COc2cc(Cl)cc(Cl)c2)CC1 (some centres unmarked) [CU217] | 106 | 96 | 65 | 16 | – |
| N[C@H]1CC[C@@H](N2CC(COc3cc(Cl)cc(Cl)c3)OC2=O)CC1 (some centres unmarked) [CU218] | 163 | 131 | 83 | 15 | – |
| N[C@H]1CC[C@H](N2CC(COc3cc(Cl)cc(Cl)c3)OC2=O)CC1 (some centres unmarked) [CU219] | 137 | 123 | 93 | 22 | – |
| CN1CCN(CC(O)COc2ccc(Cl)c(Cl)c2)CC1=O (centres unmarked) [CU220] | 116 | 105 | 104 | 105 | – |
| CN(C)CC1COCCN1CC(O)COc1ccc(Cl)c(Cl)c1 (centres unmarked) [CU221] | 104 | 106 | 106 | 84 | – |
| OC(COc1ccc(Cl)c(Cl)c1)CN1C2CCC1COC2 (centres unmarked) [CU222] | 108 | 103 | 101 | 72 | – |
| OC(COc1ccc(Cl)c(Cl)c1)CN1CC2CC(C1)O2 (centres unmarked) [CU223] | 106 | 100 | 104 | 103 | – |
| OC(COc1ccc(Cl)c(Cl)c1)CN1CC2CCC1CO2 (centres unmarked) [CU224] | 117 | 95 | 100 | 69 | – |
| OC(COc1ccc(Cl)c(Cl)c1)CN1CC2CC1CO2 (centres unmarked) [CU225] | 114 | 101 | 98 | 73 | – |
